Values of other authors in patent publication US20040039036A1, “Water-soluble liquid internal medicine” (priority 2000, published 2004).

Conditions: JP-A-11-193233 injectable solution, famotidine 1 mg/mL; after preservation at 40° C. for 2 months

In the case of `NC(N)=Nc1nc(CSCCC(N)=NS(N)(=O)=O)cs1` [famotidine], the residual rate is given as 96.6%.
